{"source": "patent US20070078097A1", "about": "“Method for treating intermittent claudication comprising the administration of propionyl L-carnitine and a concomitant physical training” (priority 2005, published 2007)", "key": {"[1]": {"test_system": "patients with Intermittent Claudication (Leriche-Fontaine Class II)", "test": "Quality of life questionnaires (PAD-related, SF-36, WIQ), O'Brien global score", "assay_type": "in vivo, human", "description": "(§1) Three parallel, randomized, double-blind, placebo-controlled, phase III studies in patients with Intermittent Claudication (Leriche-Fontaine Class II) represent the basis for the above considerations. They are study ST 261 201 90 INT (hereinafter referred to as the European study); study ST 94 301 (hereinafter referred to as the Hiatt study); and ST 93 301, hereinafter referred to as the Porter study).\n(§2) Diagnosis and main criteria for inclusion for these studies were similar, as follows: intermittent claudication of ascertained vascular origin; age between 40 and 80 years; lesions at iliac-femoral and/or femoro-popliteal level confirmed by angiographic or Doppler examination; no pain at rest (Leriche-Fontaine Class III) or ulcerative lesions (Leriche-Fontaine Class IV); history of claudication >1 year; dietary regime and alcohol intake stable during the study. All patients were strongly encouraged to stop smoking and exercise actively. The latter recommendation was to be achieved either through a supervised, vascular rehabilitation-based program, or via an unsupervised, home-based program.\nThe above studies also assessed quality of life (QoL) as their main secondary efficacy parameter: the European study used the ad-hoc validated PAD-related questionnaire, while the Hiatt and Porter studies used both the very well-known and validated Health Status Survey-Short Form 36 (SF-36) and the Walking Impairment Questionnaire (WIQ).\nSimilar results were obtained also when considering QoL. Since several questionnaires were used in each study, a global summary statistic was used in order to deal with this issue, as well as with the multiplicity of domains present in each of these questionnaires, i.e., the O'Brien test."}, "[2]": {"test_system": "patients with Intermittent Claudication (Leriche-Fontaine Class II)", "test": "Maximum walking distance on treadmill, three phase III placebo-controlled studies", "assay_type": "in vivo, human", "conditions": "for MWD at Month 6/Endpoint, Mean / MWD at Month 6/Endpoint, Median: PLC 2 g/day oral, 3 km/h; for MWD Change from Baseline to Endpoint, Mean / MWD Change from Baseline to Endpoint, Median: PLC 2 g/day", "description": "as §1, §2\nA total of 316 subjects (PLC, 153 subjects; placebo, 163 subjects) were randomized in the primary intention-to-treat population (ITT) of the European study, which was conducted in 39 centers in West and East Europe, and tested PLC (2 g/day) for 12 months vs. placebo. Patients had to have a maximum walking distance (MWD) at baseline between 50-400 m. and variability over the three treadmill tests carried-out at baseline of ≦25%.\nA total of 161 subjects (PLC, 85 subjects; placebo, 76 subjects) were randomized in the ITT population of the Hiatt study, which was performed in 10 centers in the USA and Russia, and tested PLC (2 g/day for 6 months) versus placebo.\nA total of 155 subjects (ITT population: PLC, 80 subjects; placebo, 75 subjects) were randomized in the 6-month, Porter study, which was conducted in 16 US centers and tested PLC 2 g/day vs. placebo as its primary target population. All randomized patients had baseline MWD between 50-250 m and variability ≦25%.\nThese phase III studies evaluated physical performance as their primary efficacy parameter. This was assessed by the maximum walking capacity of patients on a treadmill: the European study used a fixed treadmill with 7% slope and 3 km/hour speed; the Hiatt study used a graded treadmill, starting at 0% slope and increasing by 2% every 2 minutes, with a 2 mph speed; the Porter study used a fixed treadmill with 12% slope and 2 mph speed.\nGiven the non-normality of response distributions for MWD, the comparison between PLC and placebo-treated patients was based on a non-parametric test, i.e., the Cochrane-Mantel-Haenszel test on the within-center, standardized mid-ranks (MODRIDITS) of changes over baseline, stratified by site."}, "[3]": {"test_system": "patients with claudication", "conditions": "orally given; randomised placebo-controlled trials of the literature; cited from earlier work"}, "platelet": {"test_system": "platelet", "conditions": "literature (Pignatelli et al. 2003); cited from earlier work"}, "claudicant patients": {"test_system": "claudicant patients", "conditions": "six patients; intravenous 3 g bolus followed by infusion of 2 mg/Kg/man for 30 minutes; Brevetti et al. 1988; cited from earlier work"}, "[4]": {"conditions": "ITT with concomitant physical exercise, PLC N = 54, P-value vs placebo <0.001"}, "[5]": {"conditions": "ITT without concomitant physical exercise, PLC N = 261, P-value vs placebo 0.142"}, "[6]": {"conditions": "ITT with concomitant physical exercise, N = 54, P-value vs placebo 0.000"}, "[7]": {"conditions": "ITT without concomitant physical exercise, N = 264, P-value vs placebo 0.777"}}, "data": [{"molecule": "CCC(=O)O[C@H](CC(=O)[O-])C[N+](C)(C)C", "note": "[PLC, propionyl L-carnitine]", "values": [{"measurement": "Change in O'Brien scores for QoL questionnaires, Baseline to Endpoint, Mean", "setting": "[1]; [4]", "value": 0.56}, {"measurement": "Change in O'Brien scores for QoL questionnaires, Baseline to Endpoint, Median", "setting": "[1]; [4]", "value": 0.54}, {"measurement": "Change in O'Brien scores for QoL questionnaires, Baseline to Endpoint, Mean", "setting": "[1]; [5]", "value": 0.51}, {"measurement": "Change in O'Brien scores for QoL questionnaires, Baseline to Endpoint, Median", "setting": "[1]; [5]", "value": 0.50}, {"measurement": "QoL at endpoint compared to the placebo group", "setting": "[1]; overall ITT subjects, p<0.001", "value": "significant improvement"}, {"measurement": "MWD at Month 6/Endpoint, Mean", "setting": "[2]; ITT with concomitant physical exercise, N = 54, converted to treadmill 7% slope, baseline mean 249.7", "value": 410.8, "unit": "m"}, {"measurement": "MWD at Month 6/Endpoint, Median", "setting": "[2]; ITT with concomitant physical exercise, N = 54, treadmill 7% slope, baseline median 239.2", "value": 400.9, "unit": "m"}, {"measurement": "MWD Change from Baseline to Endpoint, Mean", "setting": "[2]; [6]", "value": 161.1, "unit": "m"}, {"measurement": "MWD Change from Baseline to Endpoint, Median", "setting": "[2]; [6]", "value": 154.8, "unit": "m"}, {"measurement": "MWD at Month 6/Endpoint, Mean", "setting": "[2]; ITT without concomitant physical exercise, N = 264, treadmill 7% slope, baseline mean 205.6", "value": 325.3, "unit": "m"}, {"measurement": "MWD at Month 6/Endpoint, Median", "setting": "[2]; ITT without concomitant physical exercise, N = 264, treadmill 7% slope, baseline median 171.7", "value": 225.5, "unit": "m"}, {"measurement": "MWD Change from Baseline to Endpoint, Mean", "setting": "[2]; [7]", "value": 119.7, "unit": "m"}, {"measurement": "MWD Change from Baseline to Endpoint, Median", "setting": "[2]; [7]", "value": 36.6, "unit": "m"}, {"measurement": "net PLC advantage over placebo in exercise performance at endpoint", "setting": "[2]; overall ITT subjects of the three studies, p=0.08", "value": 18.2, "unit": "m"}, {"measurement": "walking distance in patients with claudication", "setting": "[3]", "value": "significant increase"}, {"measurement": "arachidonic acid accumulation in the phospholipids of platelet membrane", "setting": "platelet", "value": "inhibits"}, {"measurement": "platelet thromboxane A2 and O2 formation", "setting": "platelet", "value": "reduction"}]}, {"molecule": "C[N+](C)(C)C[C@H](O)CC(=O)[O-]", "note": "[levocarnitine, L-carnitine]", "values": [{"measurement": "increase of venous lactate induced by walking test", "setting": "claudicant patients", "value": "lowered"}, {"measurement": "walking distance in patients with claudication", "setting": "[3]", "value": "significant increase"}]}]}
